pEC50: −log10 of the molar value.
system: normal male SD rats; assay: Plasma Ca^2+ level of rats after single oral administration; format: in vivo; conditions: rat, mean of six animals, 1 hr after single oral dose 30 μmol/kg; vehicle 10% cyclodextrin (** 1% sodium-CMC)
Method: The compound of the present invention was administered to rats so as to examine the effects of the compound on the plasma calcium ion level and serum PTH level. The test was performed by orally administering single dose of the compound of the invention or a control compound to normal male SD rats with six animals in each group.
To the group 1 was administered as a control a 10% cyclodextrin aqueous solution in a dose of 2.5 ml/kg. To the group 2 was administered as a reference (R)-N-(3-(2-chlorophenyl)propyl)-1-(3-methoxyphenyl)ethylamine (KRN568) dissolved in a 10% cyclodextrin aqueous solution in a dose of 30 μmol/kg. To the group 3 was administered the compound of the present invention dissolved in a 10% cyclodextrin aqueous solution in a dose of 30 μmol/kg, provided that 1% sodium-CMC aqueous solution was used in place of 10% cyclodextrin aqueous solution for the compounds marked with ** in Table 2.
Blood of each rat was collected from the tail tip before the administration and 30 minutes and 1, 2, 4, 8 and 24 hours thereafter (or at the time indicated in Table 2), and the plasma Ca^2+ level and serum PTH level were measured. The data of the serum PTH level were statistically processed by the multiple comparison analysis in accordance with Steel's calibration by using the group 1 as the control.

Structure (SMILES)	Plasma Ca^2+ (mmol/l) 1 hr
COc1cccc([C@@H](C)NCCCc2ccccc2Cl)c1 [KRN568, (R)-N-(3-(2-chlorophenyl)propyl)-1-(3-methoxyphenyl)ethylamine, reference compound]	1.305 mmol/L

same assay, conditions: rat, mean of six animals, 2 hr after single oral dose 30 μmol/kg; vehicle 10% cyclodextrin (** 1% sodium-CMC)

Structure (SMILES)	Plasma Ca^2+ (mmol/l) 2 hr
COc1cccc([C@@H](C)NCCCc2ccccc2Cl)c1 [KRN568, (R)-N-(3-(2-chlorophenyl)propyl)-1-(3-methoxyphenyl)ethylamine, reference compound]	1.237 mmol/L

same assay, conditions: rat, mean of six animals, 4 hr after single oral dose 30 μmol/kg; vehicle 10% cyclodextrin (** 1% sodium-CMC)

Structure (SMILES)	Plasma Ca^2+ (mmol/l) 4 hr
COc1cccc([C@@H](C)NCCCc2ccccc2Cl)c1 [KRN568, (R)-N-(3-(2-chlorophenyl)propyl)-1-(3-methoxyphenyl)ethylamine, reference compound]	1.290 mmol/L

same assay, conditions: rat, mean of six animals, 8 hr after single oral dose 30 μmol/kg; vehicle 10% cyclodextrin (** 1% sodium-CMC)

Structure (SMILES)	Plasma Ca^2+ (mmol/l) 8 hr
COc1cccc([C@@H](C)NCCCc2ccccc2Cl)c1 [KRN568, (R)-N-(3-(2-chlorophenyl)propyl)-1-(3-methoxyphenyl)ethylamine, reference compound]	1.340 mmol/L

target: T1, human calcium receptor (Homo sapiens, UniProt P41180); assay: Activity on calcium receptors: fluo-3 fluorescence in HEK293 cells transfected with human calcium receptor gene; format: cell-based; conditions: HEK293 cells transfected with plasmid pHuPCaR4.0 (human calcium receptor gene), loaded with fluo-3; 1 mM CaCl2, 1 mM MgCl2
T1 construct: expressed in transfected cells; host or cells: HEK293
T1 sequence (P41180 20-1078): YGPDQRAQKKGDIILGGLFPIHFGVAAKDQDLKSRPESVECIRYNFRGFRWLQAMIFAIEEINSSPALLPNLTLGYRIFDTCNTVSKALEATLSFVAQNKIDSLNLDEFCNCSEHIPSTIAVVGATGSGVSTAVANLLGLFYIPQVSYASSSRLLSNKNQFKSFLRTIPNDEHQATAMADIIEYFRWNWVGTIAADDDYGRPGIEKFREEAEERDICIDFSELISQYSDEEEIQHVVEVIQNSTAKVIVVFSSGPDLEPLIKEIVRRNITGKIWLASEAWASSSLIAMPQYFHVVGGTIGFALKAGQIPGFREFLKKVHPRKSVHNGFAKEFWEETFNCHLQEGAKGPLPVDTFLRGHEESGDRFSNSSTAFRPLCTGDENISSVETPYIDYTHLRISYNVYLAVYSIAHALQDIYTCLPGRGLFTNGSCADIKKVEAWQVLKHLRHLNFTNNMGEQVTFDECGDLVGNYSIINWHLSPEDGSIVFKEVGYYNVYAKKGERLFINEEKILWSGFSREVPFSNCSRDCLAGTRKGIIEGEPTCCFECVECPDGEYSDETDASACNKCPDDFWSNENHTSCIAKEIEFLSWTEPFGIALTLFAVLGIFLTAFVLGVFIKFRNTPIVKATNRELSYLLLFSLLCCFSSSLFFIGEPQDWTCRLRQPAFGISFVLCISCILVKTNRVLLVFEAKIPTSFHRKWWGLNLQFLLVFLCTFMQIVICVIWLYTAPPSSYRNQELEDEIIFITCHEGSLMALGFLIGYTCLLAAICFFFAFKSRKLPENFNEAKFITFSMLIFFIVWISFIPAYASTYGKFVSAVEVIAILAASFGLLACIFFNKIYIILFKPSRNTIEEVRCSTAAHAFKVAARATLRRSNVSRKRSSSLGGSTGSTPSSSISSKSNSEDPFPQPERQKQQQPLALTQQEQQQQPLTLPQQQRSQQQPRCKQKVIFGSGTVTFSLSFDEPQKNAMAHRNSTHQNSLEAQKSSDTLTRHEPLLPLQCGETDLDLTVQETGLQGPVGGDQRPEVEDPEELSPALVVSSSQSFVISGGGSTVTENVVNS
Method: The activities of the compounds of the present invention on calcium receptors were measured. The measurement was performed in accordance with the method described in Example 4 of Nemeth et al., PCT/US95/13704 (International Publication No. WO96/12697). In brief, HEK293 cells were transfected with a plasmid pHuPCaR4.0 containing a human calcium receptor gene and loaded with fluo-3. The loading was carried out by incubating the cells at 37° C. for 1 hour in Dulbecco's modified Eagle's medium which contained about 5 μM of fluo-3/AM and had been buffered with 20 mM HEPES. Next, the cells were rinsed with Hank's balanced salt solution which contained 1 mM CaCl2 and 1 mM MgCl2 and had been buffered with 20 mM HEPES. Then each test compound was added to the cells and the fluorescence was measured with the use of an excitation wavelength of 485 nm and an emission wavelength of 540 nm.

Structure (SMILES)	pEC50
COc1cccc(C(C)NCCCOc2ccc3[nH]ccc3c2)c1 (stereo not shown) [Compound 80]	6.33
COc1cccc(C(C)NCCCNC(C)c2cccc(OC)c2)c1 (stereo not shown) [Compound 88]	5.49
COc1cccc(C(C)NCCCOc2cccc(Cl)c2)c1 (stereo not shown) [Compound 65]	6.28
COc1cccc(C(C)NCCCCCOc2ccc(Cl)cc2)c1 (stereo not shown) [Compound 16]	6.26
CC(NCCCCCSc1ccccc1Br)c1cccc2ccccc12 (stereo not shown) [Compound K-2075]	6.85
COc1cccc(C(C)NCCCCCCOc2cccc(Cl)c2)c1 (stereo not shown) [Compound 12]	5.92
CC(NCCC(=O)N(Cc1ccccc1)Cc1ccc(Cl)cc1Cl)c1cccc2ccccc12 (stereo not shown) [Compound K-2251]	7.29
CC(NCCOc1cccc(Cl)c1)c1cccc2ccccc12 (stereo not shown) [Compound K-2030]	7.31
COc1cccc(C(C)NCCCSc2ccc3ccccc3c2)c1 (stereo not shown) [Compound 77]	6.00
COc1cccc(C(C)NCCCCCCOc2ccccc2Cl)c1 (stereo not shown) [Compound 6]	5.12
C[C@@H](NCCSc1cc(Cl)ccc1Cl)c1cccc2ccccc12 [Compound K-2117, (R)-N-[1-(1′-naphthyl)ethyl]-2-(2′,5′-dichlorophenylthio)ethylamine]	7.37
CC(NCCSc1cc(Cl)c(Cl)cc1Cl)c1cccc2ccccc12 (stereo not shown) [Compound K-2295]	5.87
C[C@@H](NCCCCCCCSc1c(F)c(F)cc(F)c1F)c1cccc2ccccc12 [Compound S-165]	6.82
COc1cccc(C(C)NCCCCCSc2nc3ccccc3s2)c1 (stereo not shown) [Compound 38]	6.01
CC(NCCC(=O)N(Cc1ccccc1)Cc1ccccc1Cl)c1cccc2ccccc12 (stereo not shown) [Compound K-2249]	7.09
COc1cccc(C(C)NCCCCOc2cccc(Cl)c2)c1 (stereo not shown) [Compound 8]	5.72
CC(NCCCOc1ccc2[nH]ccc2c1)c1cccc2ccccc12 (stereo not shown) [Compound 112]	7.11

Structure (SMILES)	pEC50
COc1cccc(C(C)NCCCCCCOc2ccc(Cl)cc2)c1 (stereo not shown) [Compound 18]	6.12
CC(C)c1ccccc1SCCNC(C)c1cccc2ccccc12 (stereo not shown) [Compound S-202]	6.82
CC(NCCC(=O)N(Cc1cccc(Cl)c1)Cc1cccc(Cl)c1)c1cccc2ccccc12 (stereo not shown) [Compound K-2253]	6.72
CC(NCCC(=O)N(Cc1ccc(F)cc1)Cc1ccc(F)cc1)c1cccc2ccccc12 (stereo not shown) [Compound K-2256]	6.74
COc1cccc(C(C)NCCCCCOc2cccc(Cl)c2)c1 (stereo not shown) [Compound 10]	6.00
CC(NCCCCCCCSc1c(Cl)c(Cl)nc(Cl)c1Cl)c1cccc2ccccc12 (stereo not shown) [Compound S-193]	7.18
CC(NCCC(=O)N(Cc1ccc(Cl)cc1)Cc1cccc(Cl)c1)c1cccc2ccccc12 (stereo not shown) [Compound K-2261]	7.59
CC(NCCSc1cccc(C(F)(F)F)c1)c1cccc2ccccc12 (stereo not shown) [Compound K-2275]	6.57
COc1cccc([C@@H](C)NCCCOc2ccc(-c3ccccc3)cc2)c1 [Compound 83]	6.00
CC(NCCC(=O)N(Cc1ccccc1)Cc1ccccc1)c1cccc2ccccc12 (stereo not shown) [Compound K-2177]	7.12
Cc1ccc(SCCCCNC(C)c2cccc3ccccc23)cc1C (stereo not shown) [Compound S-52]	6.80
COc1cccc([C@@H](C)NCCCCCCSc2nc3ccccc3s2)c1 [Compound 40]	5.29
Cc1cc(C)cc(SCCCCCCCN[C@H](C)c2cccc3ccccc23)c1 [Compound S-69]	6.51
COc1cccc(C(C)NCCCCOc2ccccc2Cl)c1 (stereo not shown) [Compound 2]	4.89
Cc1ccc(C)c(SCCCCCCCCCCCCNC(C)c2cccc3ccccc23)c1 (stereo not shown) [Compound S-16]	6.96
COc1cccc(C(C)NCCCCCCSc2ccccc2Cl)c1 (stereo not shown) [Compound 26]	5.74
COc1cccc(C(C)NCCCOc2ccc3c(c2)Cc2ccccc2-3)c1 (stereo not shown) [Compound 59]	5.99

The next lines start with the values.

pEC50	Structure (SMILES)
7.04	C[C@@H](NCCC(=O)N(Cc1ccc(Cl)cc1)Cc1ccc(Cl)cc1)c1cccc2ccccc12 [Compound K-2243, N1,N1-di(4-chlorobenzyl)-3-{[(1R)-1-(1-naphthyl)ethyl]amino}propanamide]
6.06	COc1cccc(C(C)NCCSc2cccc(Br)c2)c1 (stereo not shown) [Compound K-2045]
5.21	C[C@@H](NCCCCCSc1ccc(C(F)(F)F)cc1)c1cccc2ccccc12 [Compound K-2076, N-[(1R)-1-(1-naphthyl)ethyl]-N-(5-{[4-(trifluoromethyl)phenyl]thio}pentyl)amine]
6.14	COc1cccc(C(C)NCCCCCSc2cccc(Br)c2)c1 (stereo not shown) [Compound K-2048]
6.77	COc1cccc(C(C)NCCCSc2ccc(Cl)c(Cl)c2)c1 (stereo not shown) [Compound K-2078]
6.85	COc1cccc(C(C)NCCCCSc2cccc(C(F)(F)F)c2)c1 (stereo not shown) [Compound K-2010]
6.37	COc1cccc(C(C)NCCCCCOc2ccc(Br)cc2)c1 (stereo not shown) [Compound K-2005]
7.10	COc1cccc(C(C)NCCCCSc2ccc(F)cc2)c1 (stereo not shown) [Compound K-2040]
6.11	COc1cccc(C(C)NCCCCCCOc2ccc(Br)cc2)c1 (stereo not shown) [Compound K-2006]
6.68	COc1cccc([C@@H](C)NCCCCCSc2cccc(C(F)(F)F)c2)c1 [Compound K-2011]
6.48	COc1cccc(C(C)NCCCCCSc2ccccc2Br)c1 (stereo not shown) [Compound K-2018]
7.41	COc1cccc(C(C)NCCCCSc2ccc(C(F)(F)F)cc2)c1 (stereo not shown) [Compound K-2056]
7.41	C[C@@H](NCCC(=O)N(Cc1ccc(OC(F)(F)F)cc1)Cc1ccc(OC(F)(F)F)cc1)c1cccc2ccccc12 [Compound K-2257, N1,N1-di[4-(trifluoromethoxy)benzyl]-3-{[(1R)-1-(1-naphthyl)ethyl]amino}propanamide]
6.44	COc1cccc(C(C)NCCCSc2ccccc2Br)c1 (stereo not shown) [Compound K-2016]
6.44	COc1cccc(C(C)NCCCCSc2ccccc2Br)c1 (stereo not shown) [Compound K-2017]
6.82	COc1cccc(C(C)NCCCSc2cccc(Cl)c2)c1 (stereo not shown) [Compound K-2061]
6.26	COc1cccc(C(C)NCCCCCCCSc2cccc(Br)c2)c1 (stereo not shown) [Compound K-2050]
7.21	COc1cccc(C(C)NCCCCCSc2ccc([N+](=O)[O-])cc2)c1 (stereo not shown) [Compound K-2034]
6.47	COc1cccc(C(C)NCCCCCCCCSc2cccc(Br)c2)c1 (stereo not shown) [Compound K-2051]
6.54	COc1cccc(C(C)NCCCOc2ccc(Br)cc2)c1 (stereo not shown) [Compound K-2003]
